Source: US8119681B2, “2-[1-phenyl-5-hydroxy or methoxy-4alpha-methyl-hexahydrocyclopenta [ƒ]indazole-5-YL]ethyl phenyl derivatives as glucocorticoid receptor ligands” (Merck Sharp & Dohme Corp., priority 2006, dated 2012)

target: T1, human GR (Homo sapiens, UniProt P04150); assay: Transrepression Assay (GITAR), TNFα-β-lactamase reporter gene in U937 cells; type: cell-based; parameters: U937 cells contain an endogenous glucocorticoid receptor (GR); endogenous in cells; host or cells: U937 cells stably transfected with the TNF-α promoter/β-lactamase reporter only; settings: U-937; 100 nM dexamethasone = 100% activity; read-out: maximal activity in the transrepression assay
T1 sequence (P04150 1-777): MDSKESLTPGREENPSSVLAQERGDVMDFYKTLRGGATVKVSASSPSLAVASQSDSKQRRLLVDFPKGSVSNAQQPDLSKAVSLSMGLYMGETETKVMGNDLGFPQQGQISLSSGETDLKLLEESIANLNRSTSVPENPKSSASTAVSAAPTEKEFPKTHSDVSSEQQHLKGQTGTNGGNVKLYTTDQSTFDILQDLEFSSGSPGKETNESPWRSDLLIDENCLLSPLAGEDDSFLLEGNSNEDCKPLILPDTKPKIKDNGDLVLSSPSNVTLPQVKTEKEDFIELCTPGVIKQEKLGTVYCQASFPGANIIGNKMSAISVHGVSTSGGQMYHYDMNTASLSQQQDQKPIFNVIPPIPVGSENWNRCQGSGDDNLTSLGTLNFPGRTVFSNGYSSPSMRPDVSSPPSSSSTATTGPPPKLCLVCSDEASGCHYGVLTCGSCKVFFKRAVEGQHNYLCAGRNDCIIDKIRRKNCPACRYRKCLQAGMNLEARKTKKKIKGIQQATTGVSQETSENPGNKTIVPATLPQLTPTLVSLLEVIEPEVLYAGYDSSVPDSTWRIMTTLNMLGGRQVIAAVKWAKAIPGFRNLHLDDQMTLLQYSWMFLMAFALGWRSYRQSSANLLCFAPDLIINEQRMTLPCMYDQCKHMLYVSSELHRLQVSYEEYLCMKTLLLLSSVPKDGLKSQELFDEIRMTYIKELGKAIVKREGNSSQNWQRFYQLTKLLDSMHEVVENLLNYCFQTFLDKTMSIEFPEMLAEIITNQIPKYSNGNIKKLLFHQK
Source text: Transrepression Assay (GITAR)
This assay assesses the ability of test compounds to control transcription from the TNFα-β-lactamase reporter gene in U937 cells, a human myelomonocytic leukemia cell line that naturally expresses the human GR. The assay measures compound dependent-repression of the TNFa promoter linked to a reporter gene.
The human U937 cells that had been stably transfected with the TNF-α promoter driving β-lactamase are used for this assay. U937 cells contain an endogenous glucocorticoid receptor (GR). […] 50,000 cells/well are plated in 96 well black-walled plates the day of assay. Test compounds are added 10 μL/well, and cells are incubated at 37° C. for 30˜45 min. For assaying compounds, first dilute 1:10 in DMSO to make 1 mM, then further dilute 1:100 in medium to make 10× stock prior to adding to the cells. Add 50 ng/ml PMA (Sigma, cat# P8139) 10 μL/well to a final concentration 5 ng/ml, and 1 μg/ml LPS (Sigma, cat# L4130) 10 μL/well to a final concentration 100 ng/ml. Incubate cells at 370 C overnight for ˜18 hr. PMA is stored frozen as 100 μg/ml stock in DMSO. Dilute 1:10 in DMSO for a working stock of 10 μg/ml and store at −20 C. For assaying, dilute the 10 μg/ml working stock 1:200 in medium to make a 10× solution (50 ng/ml). Store frozen LPS at 1 mg/ml in PBS, dilute 1:1000 in medium to make 10× (1 μg/ml) for the assay. Add 6× loading buffer (CCF2-AM) 20 μL/well, and incubate at room temperature for 70˜90 min. […] The activity repressed by 100 nM dexamethasone alone is set as 100% activity.

Emax, 5 to 100%:
C[C@]12Cc3cnn(-c4ccc(F)cc4)c3C=C1CC[C@@]2(O)CCc1ccccc1C(=O)N1CC[C@H](F)C1 [Example 54, (4αS,5R)-1-(4-fluorophenyl)-5-[2-(2-{[(3S)-3-fluoropyrrolidin-1-yl]carbonyl}phenyl)ethyl]-4α-methyl-1,4,4α,5,6,7-hexahydrocyclopenta[f]indazol-5-ol]
C[C@]12Cc3cnn(-c4ccc(F)cc4)c3C=C1CC[C@@]2(O)CCc1ccccc1CC(=O)NCC(F)(F)F [Example 56, 2-(2-{2-[(4αS,5R)-1-(4-fluorophenyl)-5-hydroxy-4α-methyl-1,4,4α,5,6,7-hexahydrocyclopenta[f]indazol-5-yl]ethyl}phenyl)-N-(2,2,2-trifluoroethyl)acetamide]
C[C@]12Cc3cnn(-c4ccc(F)cc4)c3C=C1CC[C@@]2(O)CCc1ccccc1C(=O)N1CC[C@@H](O)C1 [Example 58, (4αS,5R)-1-(4-fluorophenyl)-5-[2-(2-{[(3R)-3-hydroxypyrrolidin-1-yl]carbonyl}phenyl)ethyl]-4α-methyl-1,4,4α,5,6,7-hexahydrocyclopenta[f]indazol-5-ol]
C[C@]12Cc3cnn(-c4ccc(F)cc4)c3C=C1CC[C@@]2(O)CCc1ccccc1C(N)=O [Example 60, 2-{2-[(4αS,5R)-1-(4-fluorophenyl)-5-hydroxy-4α-methyl-1,4,4α,5,6,7-hexahydrocyclopenta[f]indazol-5-yl]ethyl}benzamide]
CC1(NC(=O)c2c(F)cccc2CC[C@]2(O)CCC3=Cc4c(cnn4-c4ccc(F)cc4)C[C@@]32C)CC1 [Example 63, 2-fluoro-6-{2-[(4αS,5R)-1-(4-fluorophenyl)-5-hydroxy-4α-methyl-1,4,4α,5,6,7-hexahydrocyclopenta[f]indazol-5-yl]ethyl}-N-(1-methylcyclopropyl)benzamide]
C[C@]12Cc3cnn(-c4ccc(F)cc4)c3C=C1CC[C@@]2(O)CCc1ccccc1C(=O)NCC(F)(F)F [Example 64, 2-{2-[(4αS,5R)-1-(4-fluorophenyl)-5-hydroxy-4α-methyl-1,4,4α,5,6,7-hexahydrocyclopenta[f]indazol-5-yl]ethyl}-N-(2,2,2-trifluoroethyl)benzamide]
C[C@]12Cc3cnn(-c4ccc(F)cc4)c3C=C1CC[C@@]2(O)CCc1cccc(F)c1C(=O)N1CCC1 [Example 65, (4αS,5R)-5-{2-[2-(azetidin-1-ylcarbonyl)-3-fluorophenyl]ethyl}-1-(4-fluorophenyl)-4α-methyl-1,4,4α,5,6,7-hexahydrocyclopenta[f]indazol-5-ol]
C[C@]12Cc3cnn(-c4ccc(F)cc4)c3C=C1CC[C@@]2(O)CCc1ccccc1C(=O)N1CCCC(F)(F)C1 [Example 66, (4αS,5R)-5-(2-{2-[(3,3-difluoropiperidin-1-yl)carbonyl]phenyl}ethyl)-1-(4-fluorophenyl)-4α-methyl-1,4,4α,5,6,7-hexahydrocyclopenta[f]indazol-5-ol]
CC(C)NC(=O)c1c(F)cccc1CC[C@]1(O)CCC2=Cc3c(cnn3-c3ccc(F)cc3)C[C@@]21C [Example 67, 2-fluoro-6-{2-[(4αS,5R)-1-(4-fluorophenyl)-5-hydroxy-4α-methyl-1,4,4α,5,6,7-hexahydrocyclopenta[f]indazol-5-yl]ethyl}-N-isopropylbenzamide]
C[C@]12Cc3cnn(-c4ccc(F)cc4)c3C=C1CC[C@@]2(O)CCc1cccc(F)c1C(N)=O [Example 68, 2-fluoro-6-{2-[(4αS,5R)-1-(4-fluorophenyl)-5-hydroxy-4α-methyl-1,4,4α,5,6,7-hexahydrocyclopenta[f]indazol-5-yl]ethyl}benzamide]
C[C@]12Cc3cnn(-c4ccc(F)cc4)c3C=C1CC[C@@]2(O)CCc1cccc(F)c1C(=O)N1CC[C@H](F)C1 [Example 69, (4αS,5R)-5-[2-(3-fluoro-2-{[(3S)-3-fluoropyrrolidin-1-yl]carbonyl}phenyl)ethyl]-1-(4-fluorophenyl)-4α-methyl-1,4,4α,5,6,7-hexahydrocyclopenta[f]indazol-5-ol]
CC(C)(NC(=O)c1ccccc1CC[C@]1(O)CCC2=Cc3c(cnn3-c3ccc(F)cc3)C[C@@]21C)C(N)=O [Example 70, N-(2-amino-1,1-dimethyl-2-oxoethyl)-2-{2-[(4αS,5R)-1-(4-fluorophenyl)-5-hydroxy-4α-methyl-1,4,4α,5,6,7-hexahydrocyclopenta[f]indazol-5-yl]ethyl}benzamide]
CCNC(=O)C(C)(C)NC(=O)c1ccccc1CC[C@]1(O)CCC2=Cc3c(cnn3-c3ccc(F)cc3)C[C@@]21C [Example 71, N-[2-(ethylamino)-1,1-dimethyl-2-oxoethyl]-2-{2-[(4αS,5R)-1-(4-fluorophenyl)-5-hydroxy-4α-methyl-1,4,4α,5,6,7-hexahydrocyclopenta[f]indazol-5-yl]ethyl}benzamide]
COC(=O)[C@@H](C)NC(=O)c1ccccc1CC[C@]1(O)CCC2=Cc3c(cnn3-c3ccc(F)cc3)C[C@@]21C [Example 72, methyl N-(2-{2-[(4αS,5R)-1-(4-fluorophenyl)-5-hydroxy-4α-methyl-1,4,4α,5,6,7-hexahydrocyclopenta[f]indazol-5-yl]ethyl}benzoyl)-D-alaninate]
CC1CN1C(=O)c1ccccc1CC[C@]1(O)CCC2=Cc3c(cnn3-c3ccc(F)cc3)C[C@@]21C (stereo partly drawn) [Example 73, (4αS,5R)-1-(4-fluorophenyl)-4α-methyl-5-(2-{2-[(2-methylaziridin-1-yl)carbonyl]phenyl}ethyl)-1,4,4α,5,6,7-hexahydrocyclopenta[f]indazol-5-ol]
C[C@]12Cc3cnn(-c4ccc(F)cc4)c3C=C1CC[C@@]2(O)CCc1ccccc1C(=O)N1CCC(F)(F)C1 [Example 74, (4αS,5R)-5-(2-{2-[(3,3-difluoropyrrolidin-1-yl)carbonyl]phenyl}ethyl)-1-(4-fluorophenyl)-4α-methyl-1,4,4α,5,6,7-hexahydrocyclopenta[f]indazol-5-ol]
CNC(=O)C(C)(C)NC(=O)c1ccccc1CC[C@]1(O)CCC2=Cc3c(cnn3-c3ccc(F)cc3)C[C@@]21C [Example 75, N-[1,1-dimethyl-2-(methylamino)-2-oxoethyl]-2-{2-[(4αS,5R)-1-(4-fluorophenyl)-5-hydroxy-4α-methyl-1,4,4α,5,6,7-hexahydrocyclopenta[f]indazol-5-yl]ethyl}benzamide]
C[C@]12Cc3cnn(-c4ccc(F)cc4)c3C=C1CC[C@@]2(O)CCc1cccc(F)c1C(=O)N1CCCC(F)(F)C1 [Example 76, (4αS,5R)-5-(2-{2-[(3,3-difluoropiperidin-1-yl)carbonyl]-3-fluorophenyl}ethyl)-1-(4-fluorophenyl)-4α-methyl-1,4,4α,5,6,7-hexahydrocyclopenta[f]indazol-5-ol]
C[C@]12Cc3cnn(-c4ccc(F)cc4)c3C=C1CC[C@@]2(O)CCc1cccc(F)c1C(=O)N1CCC(F)(F)C1 [Example 77, (4αS,5R)-5-(2-{2-[(3,3-difluoropyrrolidin-1-yl)carbonyl]-3-fluorophenyl}ethyl)-1-(4-fluorophenyl)-4α-methyl-1,4,4α,5,6,7-hexahydrocyclopenta[f]indazol-5-ol]
